Source: publication PMC2812926 (Journal of medicinal chemistry, 2008)

Experiments:
HIV-1 protease = HIV-1 protease (Human immunodeficiency virus type 1 group M subtype B, UniProt P04585); test: HIV-1 protease enzyme inhibitory assay; format: biochemical
HIV-1MDR-B = format: cell-based; conditions: PHA-PBMC
HIV-1MDR-JSL = format: cell-based; conditions: PHA-PBMC
MDR/C = format: cell-based, HIV-1; conditions: PHA-PBMC
HIV-1MDR-TM = format: cell-based; conditions: PHA-PBMC
HIV-1MDR-MM = format: cell-based; conditions: PHA-PBMC
MDR/A = format: cell-based, HIV-1; conditions: PHA-PBMC
HIV-1MDR-G = format: cell-based; conditions: PHA-PBMC
[1] = system: HIV-1ERS104pre (wild-type); test: Antiviral assay in PHA-PBMC, p24 Gag production, HIV-1ERS104pre; format: cell-based; conditions: PBMC versus MT-2 cells

Structure (SMILES) | potency change compared to 3i (enzyme Ki) (HIV-1 protease) | number in parentheses: fold change of IC50 versus ERS104pre (wild-type) (HIV-1MDR-B) | number in parentheses: fold change of IC50 versus ERS104pre (wild-type) (HIV-1MDR-JSL) | number in parentheses: fold change of IC50 versus ERS104pre (wild-type) (MDR/C) | number in parentheses: fold change of IC50 versus ERS104pre (wild-type) (HIV-1MDR-TM) | number in parentheses: fold change of IC50 versus ERS104pre (wild-type) (HIV-1MDR-MM) | number in parentheses: fold change of IC50 versus ERS104pre (wild-type) (MDR/A) | number in parentheses: fold change of IC50 versus ERS104pre (wild-type) (HIV-1MDR-G) | further results
COc1ccc(S(=O)(=O)N(CC(C)C)C[C@@H](O)[C@H](Cc2ccccc2)NC(=O)OC2COCCOCOCCOC2)cc1 [Inhibitor 3k, (1S,2R)-{1-Benzyl-2-hydroxy-3-[isobutyl(4-methoxybenzenesulfonyl)amino]propyl}carbamic acid 3,6,8,11-tetraoxacyclododecan-1-yl ester] | more than 2 fold | – | – | – | – | – | – | – | potency enhancement compared to inhibitor 3j (enzyme Ki) (HIV-1 protease; compared to 3j): 5 fold
CC(C)(C)NC(=O)[C@@H]1CN(Cc2cccnc2)CCN1C[C@@H](O)C[C@@H](Cc1ccccc1)C(=O)N[C@H]1c2ccccc2C[C@H]1O.O [IDV, Indinavir] | – | > 38 | > 38 | > 38 | > 38 | > 38 | > 38 | 11 | –
COc1ccc(S(=O)(=O)N(CC(C)C)C[C@@H](O)[C@H](Cc2ccccc2)NC(=O)O[C@@H]2CCCCOC2)cc1 [Inhibitor 3e, (1S,2R)-{1-Benzyl-2-hydroxy-3-[isobutyl(4-methoxybenzenesulfonyl)amino]propyl}carbamic acid (R)-oxepan-3-yl ester] | – | – | – | – | – | – | – | – | reduction in enzymatic inhibitory potency with respect to 3d (HIV-1 protease): ~30 fold
COc1ccc(S(=O)(=O)N(CC(C)C)C[C@@H](O)[C@H](Cc2ccccc2)NC(=O)OC2COCCN(C)CCOC2)cc1 [Inhibitor 3m, (1S,2R)-{1-Benzyl-2-hydroxy-3-[isobutyl(4-methoxybenzenesulfonyl)amino]propyl}carbamic acid N-methyl-1,7-dioxa-4-azocyclodecan-9-yl ester] | no change in inhibitory activity | – | – | – | – | – | – | – | –
COc1ccc(S(=O)(=O)N(CC(C)C)C[C@@H](O)[C@H](Cc2ccccc2)NC(=O)O[C@@H]2CCOCOC2)cc1 [Inhibitor 3d, (1S,2R)-{1-Benzyl-2-hydroxy-3-[isobutyl(4-methoxybenzenesulfonyl)amino]propyl}carbamic acid (1R)-3,5-dioxacycloheptan-1-yl ester] | – | – | – | – | – | – | – | – | factor by which values in PBMCs were greater than those with MT-2 cells [1]: about 4
COc1ccc(S(=O)(=O)N(CC(C)C)C[C@@H](O)[C@H](Cc2ccccc2)NC(=O)O[C@H]2CCCOCC2)cc1 [Inhibitor 3f, (1S,2R)-{1-Benzyl-2-hydroxy-3-[isobutyl(4-methoxybenzenesulfonyl)amino]propyl}carbamic acid (S)-oxepan-4-yl ester] | – | – | – | – | – | – | – | – | reduction in enzymatic inhibitory potency with respect to 3d (HIV-1 protease): ~30 fold
CC(C)c1nc(CN(C)C(=O)N[C@H](C(=O)N[C@@H](Cc2ccccc2)C[C@H](O)[C@H](Cc2ccccc2)NC(=O)OCc2cncs2)C(C)C)cs1 [RTV] | – | > 29 | > 29 | > 29 | > 29 | > 29 | > 29 | > 29 | –
COc1ccc(S(=O)(=O)N(CC(C)C)C[C@@H](O)[C@H](Cc2ccccc2)NC(=O)OC2COCCS(=O)(=O)CCOC2)cc1 [Inhibitor 3l, (1S,2R)-{1-Benzyl-2-hydroxy-3-[isobutyl(4-methoxybenzenesulfonyl)amino]propyl}carbamic acid 3,9-dioxa-6-thiacyclodecan-1-yl 6,6-dioxide ester] | 9 fold | – | – | – | – | – | – | – | –
COc1ccc(S(=O)(=O)N(CC(C)C)C[C@@H](O)[C@H](Cc2ccccc2)NC(=O)OC2COCOC2)cc1 [Inhibitor 3h, (1S,2R)-{1-Benzyl-2-hydroxy-3-[isobutyl(4-methoxybenzenesulfonyl)amino]propyl}carbamic acid 1,3-dioxan-5-yl ester] | – | 38 | 55 | 27 | 10 | 5 | 2 | 50 | –
